According to US20130029991A1, “New Phenylsulfamoyl Benzamide Derivatives as Bradykinin Antagonists” (priority 2006, published 2013):
Counter-ions that a name gives are not always drawn.

Assays:
[1] = target: T1, recombinant human B1 receptors (Homo sapiens, UniProt P46663); assay: Functional assay: antagonist potency by cytosolic calcium measurement (fluo-4, plate reader fluorimeter) in CHO-B1 cells; assay type: cell-based; conditions: CHO-B1 cells, inhibition of LysDABK (EC80)-evoked [Ca2+]i elevation; read-out: B1 func.
T1 construct: host or cells: CHO (CHO-B1)
T1 sequence (P46663 1-353): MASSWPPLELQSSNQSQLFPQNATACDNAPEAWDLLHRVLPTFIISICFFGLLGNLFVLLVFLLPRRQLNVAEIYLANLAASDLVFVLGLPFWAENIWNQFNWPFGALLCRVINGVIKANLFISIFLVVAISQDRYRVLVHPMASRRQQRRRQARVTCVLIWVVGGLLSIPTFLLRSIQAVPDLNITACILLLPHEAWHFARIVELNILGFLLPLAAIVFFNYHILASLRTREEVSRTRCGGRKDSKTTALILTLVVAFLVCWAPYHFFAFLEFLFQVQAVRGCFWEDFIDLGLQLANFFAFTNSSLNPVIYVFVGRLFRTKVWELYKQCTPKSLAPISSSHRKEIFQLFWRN
Protocol: Assessment of Antagonist Potency at B1 and B2 Receptors In Vitro by Measurement of Cytosolic Calcium Ion Concentration with a Plate Reader Fluorimeter in Cells Expressing Recombinant Human B1 or B2 Receptors
Chinese hamster ovary (CHO) cells stably expressing recombinant human B1 (CHO-B1, Euroscreen) or B2 (CHO-B2, Perkin-Elmer) receptors were cultured in Dulbecco's Modified Eagle's Medium (DMEM) containing 10% Fetal Calf Serum (FCS), 100 U/ml penicillin, 0.1 mg/ml streptomycin, 0.25 μg/ml amphotericin B, 1% Minimum Essential Medium Eagle (MEM), non essential amino acid solution, […], 1% pyruvate (for the B2 cell line). Cells were kept at 37° C. in a humidified incubator in an atmosphere of 5% CO2/95% air and were passaged 1:4 three times a week. Cells were plated at 1.5-2.5×10^4 cell/well on standard 96-well microplates, measurements of cytosolic calcium ion concentration ([Ca^2+]i) were carried out 1-2 days after cell plating.
Measurements of [Ca^2+]i were carried out on CHO-B1 and CHO-B2 cells stably expressing human B1 and B2 receptors, respectively. Cells were grown in standard 96-well microplates and before the measurement were loaded with a fluorescent Ca^2+-sensitive dye, fluo-4/AM (2 μM): after removing the culture medium the dye was added to the cells (dissolved in assay buffer: 145 mM NaCl, 5 mM KCl, 2 mM MgCl2, 2 mM CaCl2, 10 mM HEPES, 20 mM D-glucose, 2 mM probenecid, 100 μl/well) and cells were incubated at 37° C. in a humidified incubator in an atmosphere of 5% CO2/95% air for 40-120 min. To stop dye loading cells were washed twice with assay buffer. After washing, various concentrations of the test compounds (diluted in extracellular medium from a DMSO stock solution, final DMSO concentration was <0.1%) or buffer were added to each well depending on the experimental setup. After incubation at 37° C. for 20-25 min. baseline and agonist-evoked changes of [Ca^2+]i were measured column by column with a plate reader fluorimeter (Fluoroskan Ascent, Labsystems). Excitation and detection of emission was carried out from the bottom of the plate. Filters used for Fluo-4: excitation filter—485 nm, emission filter—538 nm. The whole measurement process was performed at 37° C. and was controlled by custom software Inhibitory potency of the test compounds was assessed by measuring the reduction in the agonist-evoked [Ca^2+]i-elevation in the presence of different concentrations of the compounds. The agonists were LysDABK for CHO-B1, and bradykinin for CHO-B2 cells. Agonists were applied at an EC80 concentration, the EC80-values were derived from daily determined dose-response curves. Fluorescence data were expressed as ΔF/F (fluorescence change normalized to baseline). All treatments on a single plate were measured in multiple wells. Data from all wells with the same treatment were averaged and the average values were used for analysis. Inhibitory potency of a compound at a single concentration point was expressed as percent inhibition of the control agonist response. Sigmoidal concentration-inhibition curves were fitted to the data (derived from at least three independent experiments) and IC50-values were determined as the concentration that produces half of the maximal inhibition caused by the compound.

[2] = target: T2, human recombinant bradykinin B1 receptor (Homo sapiens, UniProt P46663); assay: Human recombinant bradykinin B1 receptor binding; conditions: CHO cell membranes, [3H]-[Des-Arg10] Kallidin radioligand; read-out: B1 binding
T2 construct: host or cells: CHO cells
T2 sequence (P46663 1-353): T1 sequence (P46663 1-353)

| Compound | IC50 [1] [nM] | Ki [2] [nM] |
| --- | --- | --- |
| O=C(CNC(=O)c1ccc(S(=O)(=O)Nc2cc(F)ccc2Oc2ccc(Br)cc2)cc1)NCC1CCNCC1 [Example 4, 4-[2-(4-Bromo-phenoxy)-5-fluoro-phenylsulfamoyl]-N-{[(piperidin-4-ylmethyl)-carbamoyl]-methyl}-benzamide trifluoroacetate] | < 20 | < 20 |
| O=C(CNC(=O)c1ccc(S(=O)(=O)Nc2ccccc2Oc2ccc(F)cc2)cc1)NCC1CCNCC1 [Example 12, 4-[2-(4-Fluoro-phenoxy)-phenylsulfamoyl]-N-{[(piperidin-4-ylmethyl)-carbamoyl]-methyl}-benzamide hydrochloride] | < 20 | < 20 |
| O=C(CNC(=O)c1ccc(S(=O)(=O)Nc2ccccc2Oc2ccccc2)cc1)NCC(=O)N1CCNCC1 [Example 16, N-[(2-Oxo-2-piperazin-1-yl-ethylcarbamoyl)-methyl]-4-(2-phenoxy-phenylsulfamoyl)-benzamide hydrochloride] | < 20 | < 20 |
| O=C(CNC(=O)c1ccc(S(=O)(=O)Nc2ccccc2Oc2ccccc2)cc1)NCC1CCNCC1 [Example 5, 4-(2-Phenoxy-phenylsulfamoyl)-N-{[(piperidin-4-ylmethyl)-carbamoyl]-methyl}-benzamide hydrochloride] | 20 to 100 | 20 to 100 |
| O=C(CNC(=O)c1ccc(S(=O)(=O)Nc2cc(F)ccc2Oc2ccc(F)cc2)cc1)NCC1CCNCC1 [Example 15, 4-[5-Fluoro-2-(4-fluoro-phenoxy)-phenylsulfamoyl]-N-{[(piperidin-4-ylmethyl)-carbamoyl]-methyl}-benzamide hydrochloride] | < 20 | < 20 |
